“And” between values parts separate entries of the source, which are not always exact repeats. Equal entries are not always repeated.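 Following 48 hours of exposure in 96-well plates, responses at five concentrations were used to interpolate endpoints linearly. Here, GI50 denotes the concentration required for 50% inhibition of growth. At the TGI there is no net growth.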
Experiments:
Test in all cases: DTP human tumour cell line panel, 48 h
[1] = system: SK-MEL-28 melanoma
[2] = system: TK-10 renal
[3] = system: SN12C renal
[4] = system: SK-MEL-2 melanoma
[5] = system: U251 CNS
[6] = system: HCT-15 colon
[7] = system: MDA-N
[8] = system: UO-31 renal
[9] = system: DU-145 prostate
[10] = system: HL-60(TB) leukemia
[11] = system: SNB-75 CNS

Structure (SMILES) | TGI [1] | TGI [2] | TGI [3] | TGI [4] | TGI [5] | TGI [6] | TGI [7] | TGI [8] | TGI [9] | TGI [10] | TGI [11] | GI50 [10] | GI50 [1] | GI50 [7] | GI50 [8]
CC(C)(C)OC(=O)NC1CC2(C=C(Br)C(=O)C(Br)=C2)OC1=O (stereo not given) | 37.9 µM | 12.2 µM | 18.5 µM | 32 µM | 31.7 µM | 23 µM | 15.3 µM | 13.8 µM | 26.4 µM | 7.65 µM | 36.7 µM |  |  |  | 
c1cc2c(cc1NC1=NCCO1)OCO2 | > 100 µM | > 100 µM | > 100 µM | > 100 µM | > 100 µM | > 100 µM | > 100 µM | > 100 µM | > 100 µM | > 100 µM | > 100 µM |  |  |  | 
O=C(/C=C/c1ccccc1)CSc1ncn[nH]1 | > 100 µM | > 100 µM | > 100 µM | > 100 µM | > 100 µM | > 100 µM | > 100 µM | > 100 µM | > 100 µM | > 100 µM | > 100 µM |  |  |  | 
O=S(=O)(Nc1nc2ccccc2nc1Nc1ccc2ccccc2c1)c1ccccc1 | > 100 µM | > 82.7 µM | > 68.9 µM | 14 µM | > 100 µM | > 57.5 µM | > 100 µM | 39.5 µM | > 100 µM | 68.9 µM | > 73.6 µM |  |  |  | 
COc1c(/C=C/C(C)(C)O)cc(C2CC(=O)c3c(O)cc(O)cc3O2)cc1CC=C(C)C (stereo not given) | 42.5 µM | 15.8 µM | 14.3 µM | 15.6 µM | 14.4 µM | 17.5 µM | 20.5 µM | 1.6 µM | 17.4 µM | 30.8 µM | 22.8 µM |  |  |  | 
c1ccc(C(NCC2CCO2)(c2ccccc2)c2ccccc2)cc1 (stereo not given) | > 100 µM | 28.4 µM | 51.3 µM | 42.5 µM | 54 µM | 33.7 µM | 54.5 µM | 25.3 µM | 71.3 µM | 48.8 µM | 28.8 µM |  |  |  | 
O=[N+]([O-])c1ccc2c(c1)N([O-])C1(CCCCC1)[N+]2=O | 34.5 µM | 26.2 µM | 35.1 µM | 52.1 µM | 32.3 µM | 39.4 µM | 31.8 µM | 33.7 µM | 33.9 µM | > 100 µM | 33.2 µM |  |  |  | 
O=C(O)C(O)C(O)C(=O)O (stereo not given) | > 100 µM | > 100 µM | > 100 µM | > 100 µM | > 100 µM | > 100 µM | > 100 µM | > 100 µM | > 100 µM | > 100 µM | > 100 µM |  |  |  | 
Cc1nc(C)c(N2CCN(S(=O)(=O)N(Cc3ccccc3)Cc3ccccc3)CC2)c(=O)[nH]1 | > 100 µM | > 72.9 µM | > 100 µM | > 100 µM | 20.4 µM | > 100 µM | > 100 µM | > 100 µM | > 100 µM | > 100 µM | 32.9 µM |  |  |  | 
CCCCCCCCCCCCCCCCNC(=O)C(=O)/C=C(\O)c1ccc(C)cc1 | > 10 µM | > 10 µM | > 10 µM | > 10 µM | > 10 µM | > 10 µM | > 10 µM | > 10 µM | > 10 µM | > 10 µM | > 10 µM |  |  |  | 
Clc1ccc(C(c2ccccc2Cl)C(Cl)Cl)cc1 (stereo not given) | 36.7 µM | 37.5 µM | 37 µM | 35.8 µM | 36.8 µM | 36.5 µM | 35.1 µM | 37.4 µM | 34.3 µM | 51.5 µM | 35.1 µM |  |  |  | 
CCCC(CCC(N)=O)(CCC(N)=O)[N+](=O)[O-] |  | > 100 µM | > 100 µM | > 100 µM | > 100 µM | > 100 µM | > 100 µM | > 100 µM | > 100 µM | > 100 µM | > 100 µM |  |  |  | 
CCN(CC)CCCNc1ccc2nc(C)n3c4ccc(O)cc4c(=O)c1c23 | 26.6 µM | 16.4 µM | 18.7 µM | 21.3 µM | 21 µM | 15.6 µM | 20.6 µM | 19.3 µM | 19.7 µM | > 21.1 µM | 7.69 µM |  |  |  | 
NC(N)=NC(N)=Nc1ccc(S(=O)(=O)O)cc1 | > 100 µM | > 100 µM | > 100 µM | > 100 µM | > 100 µM | > 100 µM | > 100 µM | > 100 µM | > 100 µM | > 100 µM | > 100 µM |  |  |  | 
Cc1cc2/c(=C\c3ccc(N(C)C)cc3)c3ccccc3n2[n+]1C | 3.19 µM | 6.04 µM | 1.65 µM | 2.08 µM | 1.78 µM | 34.7 µM | 1.58 µM | 15.3 µM | 4.16 µM | 6.44 µM | 2.26 µM |  |  |  | 
CO/N=C(/C)c1cccc(Nc2nc3ccccc3c3[nH]c4ccccc4c23)c1 |  |  | 25 µM | 23.5 µM | 30.9 µM | 23.6 µM | 20.4 µM | 22.1 µM | 25 µM | 53.3 µM | 18.6 µM |  |  |  | 

Structure (SMILES) | TGI [1] | TGI [2] | TGI [3] | TGI [4] | TGI [5] | TGI [6] | TGI [7] | TGI [8] | TGI [9] | TGI [10] | TGI [11] | GI50 [10] | GI50 [1] | GI50 [7] | GI50 [8]
COC(=O)C1Cc2cc3c(cc2C1=O)CCCC3 (stereo not given) | > 100 µM | > 100 µM | > 100 µM | > 100 µM | > 100 µM | > 100 µM | > 100 µM | > 100 µM | > 100 µM | > 100 µM | > 100 µM |  |  |  | 
COc1ccc(-n2[nH]nc(C(N)=O)c2=O)cc1 | > 100 µM |  | > 100 µM | > 100 µM | > 100 µM | > 100 µM | > 100 µM | > 100 µM | > 100 µM | > 100 µM | > 100 µM |  |  |  | 
O=C(O)CCS/C(=C\C(SCCC(=O)O)c1ccc(Cl)cc1)c1ccc(Cl)cc1 (stereo not given) | > 100 µM | > 100 µM | > 100 µM | 74.4 µM | > 100 µM | > 100 µM | > 100 µM | > 100 µM | > 100 µM | > 100 µM | > 100 µM |  |  |  | 
Nc1[nH]nc(Nc2ccc(Cl)cc2)c1P(=O)(c1ccccc1)c1ccccc1 | 64.9 µM | > 100 µM |  | 43.1 µM | > 100 µM | 98.4 µM | 47.4 µM | > 100 µM | 86.5 µM | 82.3 µM | 51.8 µM |  |  |  | 
NC(=O)N/N=C(/CC1C(=O)Oc2ccccc21)c1ccccc1O (stereo not given) | > 100 µM | > 100 µM | > 100 µM | > 100 µM | > 100 µM | > 100 µM | > 100 µM | > 100 µM | > 100 µM | 51 µM | > 100 µM |  |  |  | 
COc1ccc2nc(-c3ccccc3)cc(OCC(=O)O)c2c1 | > 100 µM | > 100 µM | > 100 µM | > 100 µM | > 100 µM | > 100 µM | > 100 µM | 51.3 µM | > 100 µM | > 100 µM | > 100 µM |  |  |  | 
c1ccc2c(c1)c1c(n2CCOCCN2CCCC2)CCCC1 | 29.4 µM | 37 µM | 33.6 µM | 30.7 µM | 25.8 µM | 31.2 µM | 35.8 µM | 43.2 µM | 87.2 µM | 30.4 µM | 76 µM |  |  |  | 
CC1(C)OC2[C@@H](CO[C@@]3([C@@H](O)CCO)OC(C)(C)O[C@@H]23)O1 (stereo not given in full) | > 100 µM | > 100 µM | > 100 µM | > 100 µM | > 100 µM | > 100 µM | > 100 µM | > 100 µM | > 100 µM | > 100 µM | > 100 µM |  |  |  | 
C=C(C(=O)O)[C@@H]1C[C@@H]2O[C@H]1[C@@H](O)[C@@H](C)CCCC(C)=CCC[C@@]2(C)O | > 100 µM | > 100 µM | > 100 µM | > 100 µM | > 100 µM | > 100 µM | > 100 µM | > 100 µM | > 100 µM | > 100 µM | > 100 µM | 10.5 µM and 32.5 µM |  |  | 
Nc1nc(Cl)c(N)c(NCC2(CO)CC2)n1 | > 100 µM | > 100 µM | > 100 µM | > 100 µM | > 100 µM | > 100 µM | > 100 µM | > 100 µM | > 100 µM | > 100 µM | > 100 µM |  |  |  | 
Cc1ccc(NC=O)c(-c2c(N)[nH]c(=S)[nH]c2=O)c1 |  | > 100 µM | > 100 µM | > 100 µM |  | > 100 µM | > 100 µM | > 100 µM | > 100 µM | > 100 µM | > 100 µM |  |  |  | 
CS(=O)(=O)c1nc(-c2cc3c(c(S(C)(=O)=O)n2)CCCC3)cc2c1CCCCC2 | > 100 µM | > 100 µM | > 100 µM | > 100 µM | > 100 µM | > 100 µM | > 100 µM |  | > 100 µM | > 100 µM | > 100 µM |  |  |  | 
Cc1ccc(SC2C(=O)C3CC(OCc4ccccc4)C2(C)C3(C)C)cc1 (stereo not given) | > 100 µM | > 100 µM | > 100 µM | > 100 µM | > 100 µM | > 100 µM | > 100 µM | > 100 µM | > 100 µM | > 100 µM |  |  |  |  | 
O=C1/C(=C\c2cccc(Oc3ccccc3)c2)SC(c2ccccc2)N1c1ccccc1 (stereo not given) | > 100 µM | > 100 µM | > 100 µM | > 100 µM | > 100 µM | > 100 µM | 97.9 µM | > 100 µM | > 100 µM | > 100 µM |  |  |  |  | 
CN(Cc1cnc2nc(N)nc(N)c2n1)c1ccc(C(=O)N[C@@H](CCC(=O)O)C(=O)O)cc1 | > 250 µM | 230 µM and > 250 µM | 181 µM and > 250 µM | > 250 µM | > 250 µM | > 250 µM | > 250 µM | 148 µM | > 250 µM | 178 µM |  | 0.0259 µM | 3.27 µM | 0.0289 µM and 0.0122 µM | 0.0454 µM

Reference: PubChem BioAssay (NCI)
